# According to patent publication US20060030615A1, “Progesterone receptor modulators comprising pyrrole-oxindole derivatives and uses thereof” (Wyeth, priority 2004, published 2006):
# Target: T1, progesterone receptor (Homo sapiens, UniProt P06401)
# T1 construct: Effects of Progestins and Antiprogestins on Alkaline Phosphatase Activity in T47D cells; endogenous in cells; host or cells: T47D cells
# T1 sequence (P06401 1-933): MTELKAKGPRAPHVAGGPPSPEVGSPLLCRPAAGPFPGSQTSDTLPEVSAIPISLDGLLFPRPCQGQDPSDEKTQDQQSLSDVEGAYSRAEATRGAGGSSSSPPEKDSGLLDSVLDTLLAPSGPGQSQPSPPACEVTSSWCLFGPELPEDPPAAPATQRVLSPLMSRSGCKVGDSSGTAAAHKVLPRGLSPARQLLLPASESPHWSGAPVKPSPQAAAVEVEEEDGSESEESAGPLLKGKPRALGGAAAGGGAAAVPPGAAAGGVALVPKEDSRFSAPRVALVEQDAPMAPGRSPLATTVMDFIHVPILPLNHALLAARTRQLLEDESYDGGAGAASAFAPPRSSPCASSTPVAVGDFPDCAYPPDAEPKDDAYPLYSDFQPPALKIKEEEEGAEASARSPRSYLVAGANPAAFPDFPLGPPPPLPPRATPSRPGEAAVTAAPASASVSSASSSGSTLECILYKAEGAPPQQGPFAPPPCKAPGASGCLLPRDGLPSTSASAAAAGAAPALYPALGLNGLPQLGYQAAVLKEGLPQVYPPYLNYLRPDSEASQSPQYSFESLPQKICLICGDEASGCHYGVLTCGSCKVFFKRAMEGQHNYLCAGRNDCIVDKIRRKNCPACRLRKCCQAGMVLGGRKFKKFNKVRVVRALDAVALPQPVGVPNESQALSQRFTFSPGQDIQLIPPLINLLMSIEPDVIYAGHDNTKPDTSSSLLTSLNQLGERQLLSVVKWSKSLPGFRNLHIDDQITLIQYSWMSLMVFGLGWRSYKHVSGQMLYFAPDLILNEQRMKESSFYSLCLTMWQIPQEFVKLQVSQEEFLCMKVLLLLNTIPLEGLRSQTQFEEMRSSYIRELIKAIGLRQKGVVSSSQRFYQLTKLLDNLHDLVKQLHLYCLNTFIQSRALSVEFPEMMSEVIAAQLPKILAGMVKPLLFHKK
# Assay: T47D Cell Alkaline Phosphatase Assay
# Assay type: cell-based
# Settings: antagonist mode, T47D cells, in the presence of 1 nM progesterone, 24 hours
# Method: A. Effects of Progestins and Antiprogestins on Alkaline Phosphatase Activity in T47D cells (T47D Alkaline Phosphatase Assay)
# The molecules of the present invention are anticipated to be active in the antagonist mode in the T47D alkaline phosphatase assay at concentrations of 3 μM or lower.
# Culture medium: DMEM:F12 (1:1) (GIBCO, BRL) supplemented with 5% (v/v) charcoal stripped fetal bovine serum (not heat-inactivated), 100 U/ml penicillin, 100 μg/ml streptomycin, and 2 mM GlutaMax (GIBCO, BRL).
# Alkaline phosphatase assay buffer: I. 0.1M Tris-HCI, pH 9.8, containing 0.2% Triton X-100, 0.1M Tris-HCI, pH 9.8, containing 4 mM p-nitrophenyl phosphate (Sigma).
# 2. Cell Culture And Treatment:
# Frozen T47D cells are thawed in a 37° C. water bath and diluted to 280,000 cells/ml in culture medium. To each well in a 96-well plate (Falcon, Becton Dickinson Labware), 180 μl of diluted cell suspension is added. Twenty μl of reference or test compounds diluted in the culture medium is then added to each well. When testing for progestin antagonist activity, reference antiprogestins or test compounds are added in the presence of 1 nM progesterone. The cells are incubated at 37° C. in a 5% CO2 humidified atmosphere for 24 hours. For high throughput screening, one concentration of each compound will be tested at 0.3 μg/ml. Based on an average molecular weight of 300 g/mol for the compounds in the library, the concentration is approximately 1 μM. Subsequently, active compounds will be tested in dose response assays to determine EC50 and IC50.
# 3. Alkaline Phosphatase Enzyme Assay:
# At the end of treatment, the medium is removed from the plate. Fifty μl of assay buffer I is added to each well. The plates are shaken in a titer plate shaker for 15 min. Then 150 μl of assay buffer II is added to each well. Optical density measurements are taken at 5 min intervals for 30 min. at a test wavelength of 405 nm.
# 4. Analysis of Dose-Response Data.
# For reference and test compounds, a dose response curve is generated for dose vs. the rate of enzyme reaction (slope). Square root-transformed data are used for analysis of variance and nonlinear dose response curve fitting for both agonist and antagonist modes. Huber weighting is used to down-weight the effects of outliers. EC50 or IC50 values are calculated from the retransformed values. JMP software (SAS Institute, Inc.) is used for both one-way analysis of variance and non-4 linear dose response analysis in both single dose and dose response studies.
# Progesterone and trimegestone are reference progestins and RU486 is the reference antiprogestin. All reference compounds are run in full dose response curves and the EC50 and IC50 values are calculated.
row,SMILES,IC50 [nM]
1,"CCC1C(=O)Nc2ccc(-c3ccc(C#N)n3C)cc21 (racemic) [5-(3-ethyl-2-oxo-2,3-dihydro-1H-indol-5-yl)-1-methyl-1H-pyrrole-2-carbonitrile]",5.7
2,"CC[C@H]1C(=O)Nc2ccc(-c3ccc(C#N)n3C)cc21 (single isomer, unassigned)",6.1
3,"CC[C@@]1(C)C(=O)Nc2ccc(-c3ccc(C#N)n3C)cc21 (single isomer, unassigned)",3.2
4,"CC[C@@H]1C(=O)Nc2ccc(-c3ccc(C#N)n3C)cc21 (single isomer, unassigned)",13.1
5,"CC[C@]1(C)C(=O)Nc2ccc(-c3ccc(C#N)n3C)cc21 (single isomer, unassigned)",7.4
6,"CN1C(=O)C(C)(C)c2cc(-c3ccc(C#N)n3C)ccc21 [1-methyl-5-(1,3,3-trimethyl-2-oxo-2,3-dihydro-1H-indol-5-yl)-1H-pyrrole-2-carbonitrile]",13.3
7,"Cn1c(C#N)ccc1-c1ccc2c(c1)CC(=O)N2 [1-methyl-5-(2-oxo-2,3-dihydro-1H-indol-5-yl)-1H-pyrrole-2-carbonitrile]",20.4
8,"Cn1c(C#N)ccc1-c1ccc2c(c1)C1(CCC1)C(=O)N2 [1-methyl-5-(2′-oxo-1′,2′-dihydrospiro[cyclobutane-1,3′-indol]-5′-yl)-1H-pyrrole-2-carbonitrile]",1
9,"Cn1c(C#N)ccc1-c1ccc2c(c1)C1(CCCC1)C(=O)N2 [1-methyl-5-(2′-oxo-1′,2′-dihydrospiro[cyclopentane-1,3′-indol]-5′-yl)-1H-pyrrole-2-carbonitrile]",30
10,"Cn1c(C#N)ccc1-c1ccc2c(c1)C1(CC1)C(=O)N2 [1-methyl-5-(2′-oxo-1′,2′-dihydrospiro[cyclopropane-1,3′-indol]-5′-yl)-1H-pyrrole-2-carbonitrile]",8.1
11,"CC(C)(C)OC(=O)n1c(C#N)ccc1-c1ccc2c(c1)C1(CCCC1)C(=O)N2 [2-Cyano-5-(1,2-dihydro-2-oxospiro[cyclopentane-1,3-[3H]indol]-5-yl)-1H-pyrrole-1-carboxylic acid, tert-butyl ester]",300
12,"N#Cc1ccc(-c2ccc3c(c2)C2(CCCC2)C(=O)N3)[nH]1 [5-(1,2-Dihydro-2-oxospiro[cyclopentane-1,3-[3H]indol]-5-yl)-1H-pyrrole-2-carbonitrile]",60
13,"CN1C(=O)C(C)(C)c2cc(-c3ccc(C#N)[nH]3)ccc21 [5-(1,3,3-trimethyl-2-oxo-2,3-dihydro-1H-indol-5-yl)-1H-pyrrole-2-carbonitrile]",72.9
14,"CCC1(CC)C(=O)Nc2ccc(-c3ccc(C#N)n3C)cc21 [5-(3,3-Diethyl-2-oxo-2,3-dihydro-1H-indol-5-yl)-1-methyl-1H-pyrrole-2-carbonitrile]",3.3
15,"CC1(C)C(=O)Nc2ccc(-c3ccc(C#N)[nH]3)cc21 [5-(3,3-Dimethyl-2-oxo-2,3-dihydro-1H-indol-5-yl)-1H-pyrrole-2-carbonitrile]",27.2
16,"Cn1c(C#N)ccc1-c1ccc2c(c1)C(C)(C)C(=O)N2 [5-(3,3-dimethyl-2-oxo-2,3-dihydro-1H-indol-5-yl)-1-methyl-1H-pyrrole-2-carbonitrile]",10

# System: rat uterine decidualization
# Assay: Rat Decidualization Assay (mature ovariectomized rats)
# Assay type: in vivo
# Settings: rat decidual assay, po
# Method: B. Progestational and Antiprogestational Activity in Mature Ovariectomized Rats (Rat Decidualization Assay)
# This assay is used to evaluate the effect of progestins and antiprogestins on rat uterine decidualization and compare the relative potencies of various test compounds.
# Test compounds are dissolved in 100% ethanol and mixed with corn oil (vehicle). Stock solutions of the test compounds in oil (Mazola™) are then prepared by heating (˜80° C.) the mixture to evaporate ethanol. Test compounds are subsequently diluted with 100% corn oil or 10% ethanol in corn oil prior to the treatment of animals. No difference in decidual response was found when these two vehicles were compared. […]
# Approximately 24 hr after the third injection, decidualization is induced in one of the uterine horns of anesthetized rats by scratching the antimesometrial luminal epithelium with a blunt 21 G needle. […] Approximately 24 hr following the final treatment, rats are sacrificed by CO asphyxiation and body weight measured. […]
# In agonist mode, the increase in weight of the decidualized uterine horn is calculated by D-horn/C-horn and logarithmic transformation is used to maximize normality and homogeneity of variance. […] EC50 is calculated from the transformed value. […] IC50 is calculated from the retransformed value. […]
row,SMILES,ED50 [mg/k]
1,"Cn1c(C#N)ccc1-c1ccc2c(c1)C(C)(C)C(=O)N2 [5-(3,3-dimethyl-2-oxo-2,3-dihydro-1H-indol-5-yl)-1-methyl-1H-pyrrole-2-carbonitrile]",0.2

# System: not given
# Assay: not given
# Settings: not given
row,SMILES,melting point [°C]
1,"CCC1(CC)C(=O)Nc2ccc(-c3ccc(C#N)n3C)cc21 [5-(3,3-Diethyl-2-oxo-2,3-dihydro-1H-indol-5-yl)-1-methyl-1H-pyrrole-2-carbonitrile]",233 to 235
